Laboratory results: patent US20030104063A1, “Pharmaceutical compositions of dispersions of amorphous drugs mixed with polymers” (priority 2001, published 2003)

Tests used:
Type in all cases: physicochemical
[1] = In vitro dissolution test of Drug 2 compositions in PBS with sodium taurocholic acid/POPC (microcentrifuge, HPLC); conditions: for Drug 2 Concentration: PBS with sodium taurocholic acid/POPC, 37° C.
Method: Example 5 was prepared by combining the drug/matrix dispersion of Drug 2 and polyethylene glycol with the concentration-enhancing polymer HPMCAS. Example 5 was evaluated in an in vitro dissolution test using a microcentrifuge method. In this test, 18 mg of the dispersion was added to each of two microcentrifuge tubes. The tubes were placed in a 37° C. temperature-controlled chamber, and 1.8 mL PBS containing 7.3 mM sodium taurocholic acid and 1.4 mM 1-palmitoyl-2-oleyl-sn-glycero-3-phosphocholine, with 7.2 mg HPMCAS-MF, was added. The tests were sampled as described in Example 1, and analyzed using HPLC. Samples were collected at 4, 10, 20, 40, 90, and 1200 minutes.

[2] = In vitro dissolution test of Drug 3 compositions in PBS (microcentrifuge, HPLC); conditions: for Drug 3 Concentration: PBS, 37° C.
Method: Example 6 was prepared by combining the dispersion with the concentration-enhancing polymer HPMCAS. 7.2 mg of the dispersion of Example 6 was added to microcentrifuge tubes. Tests were performed in duplicate. The tubes were placed in a 37° C. temperature-controlled chamber, and 1.8 mL PBS with 5.4 mg HPMCAS-MF was added. The tests were sampled as described in Example 1, and analyzed using HPLC.

[3] = In vitro dissolution test of Drug 4 compositions in PBS (microcentrifuge, HPLC); set-up: AUC: concentration or dose not given beside the values; conditions: for Drug 4 Concentration: PBS, 37° C.
Method: Tests were performed in duplicate. The tubes were placed in a 37° C. temperature-controlled chamber, and 1.8 mL PBS with 7.2 mg PVA was added. The tests were sampled as described in Example 1, and analyzed using HPLC. HPLC analysis was performed using a Zorbax SB C18 column, with a mobile phase of 35 vol. % water and 65 vol. % methanol. UV absorbance of Drug 4 was measured at 297 nm.

[4] = In vitro dissolution test of Drug 5 compositions in MFDS pH 6.5 (microcentrifuge, HPLC); conditions: for Drug 5 Concentration: MFDS pH 6.5, 37° C.
Method: Example 10 was prepared by combining the above amorphous dispersion with the concentration-enhancing polymer hydroxypropyl methylcellulose (HPMC E3 Prem LV, Dow Chemical Co.). 1.4 mg of the amorphous dispersion was added to microcentrifuge tubes. The tubes were placed in a 37° C. temperature-controlled chamber, and 1.8 mL PBS containing 0.5 wt % sodium taurocholic acid/1-palmitoyl-2-oleyl-sn-glycero-3-phosphocholine (MFDS, pH 6.5) and 0.4 mg HPMC was added. The tests were sampled as described in Example 1, and analyzed using HPLC.
For Control C12, in vitro dissolution tests were performed using the precedures described above except that 1.4 mg of the amorphous dispersion was tested without concentration-enhancing polymer (HPMC) in the test solution.

CCC(CC)Oc1c(C)cnc(Oc2c(C)cc(C)cc2C)c1C [Control C7, 3,5-dimethyl-4-(3′-pentoxy)-2-(2′, 4′, 6′-trimethylphenoxy) pyridine]
Drug 2 Concentration ([1]; 0 min): 0 µg/mL | Drug 2 Concentration ([1]; 4 min): 16 µg/mL | Drug 2 Concentration ([1]; 10 min): 33 µg/mL | Drug 2 Concentration ([1]; 20 min): 32 µg/mL | Drug 2 Concentration ([1]; 40 min): 30 µg/mL | Drug 2 Concentration ([1]; 90 min): 39 µg/mL | Drug 2 Concentration ([1]; 1200 min): 37 µg/mL | AUC ([1]; Drug 2, 0 min): 0 µg·min/mL | AUC ([1]; Drug 2, 4 min): 0 µg·min/mL | AUC ([1]; Drug 2, 10 min): 200 µg·min/mL | AUC ([1]; Drug 2, 20 min): 500 µg·min/mL | AUC ([1]; Drug 2, 40 min): 1,100 min*μg/mL | AUC ([1]; Drug 2, 90 min): 2,800 min*μg/mL | AUC ([1]; Drug 2, 1200 min): 45,000 min*μg/mL | AUC90 ([1]; Drug 2, area under the concentration versus time curve after 90 minutes): 2800 µg·min/mL | C1200 ([1]; Drug 2 concentration at 1200 minutes): 37 µg/mL | Cmax,90 ([1]; maximum concentration of Drug 2 in solution during the first 90 minutes): 39000 ng/mL

CCOC(=O)N1c2ccc(C(F)(F)F)cc2[C@@H](N(Cc2cc(C(F)(F)F)cc(C(F)(F)F)c2)C(=O)OC)C[C@H]1CC [Control C9, [2R,4S] 4-[(3,5-bis-trifluoromethyl-benzyl)-methoxycarbonyl-amino]-2-ethyl-6-trifluoromethyl-3,4-dihydro-2H-quinoline-1-carboxylic acid ethyl ester]
Drug 3 Concentration ([2]; 0 min): <1 µg/mL | Drug 3 Concentration ([2]; 4 min): <1 µg/mL | Drug 3 Concentration ([2]; 10 min): <1 µg/mL | Drug 3 Concentration ([2]; 20 min): <1 µg/mL | Drug 3 Concentration ([2]; 40 min): <1 µg/mL | Drug 3 Concentration ([2]; 90 min): <1 µg/mL | Drug 3 Concentration ([2]; 1200 min): <1 µg/mL | AUC ([2]; Drug 3, 0 min): <1 µg·min/mL | AUC ([2]; Drug 3, 4 min): <1 µg·min/mL | AUC ([2]; Drug 3, 10 min): <1 µg·min/mL | AUC ([2]; Drug 3, 20 min): <1 µg·min/mL | AUC ([2]; Drug 3, 40 min): <1 µg·min/mL | AUC ([2]; Drug 3, 90 min): <1 µg·min/mL | AUC ([2]; Drug 3, 1200 min): <1 µg·min/mL | AUC90 ([2]; Drug 3, after 90 minutes): <1 µg·min/mL | C1200 ([2]; Drug 3 concentration at 1200 minutes): <1 µg/mL | Cmax,90 ([2]; maximum concentration of Drug 3 during the first 90 minutes): <1000 ng/mL

O=C(N[C@@H](Cc1ccccc1)[C@@H](O)C(=O)N1C[C@@H](O)[C@@H](O)C1)c1cc2cc(Cl)ccc2[nH]1 [Control C11, 5-chloro-1H-indole-2-carboxylic acid [(1S)-benzyl-3-((3R, 4S)-dihydroxypyrrolidin-1-yl-)-(2R)-hydroxy-3-oxypropyl] amide]
Drug 4 Concentration ([3]; 0 min): 0 µg/mL | Drug 4 Concentration ([3]; 4 min): 360 µg/mL | Drug 4 Concentration ([3]; 10 min): 382 µg/mL | Drug 4 Concentration ([3]; 20 min): 372 µg/mL | Drug 4 Concentration ([3]; 40 min): 345 µg/mL | Drug 4 Concentration ([3]; 90 min): 262 µg/mL | Drug 4 Concentration ([3]; 1200 min): 154 µg/mL | AUC ([3]; Drug 4, 0 min): 0 µg·min/mL | AUC ([3]; Drug 4, 4 min): 700 µg·min/mL | AUC ([3]; Drug 4, 10 min): 2,900 min*μg/mL | AUC ([3]; Drug 4, 20 min): 6,700 min*μg/mL | AUC ([3]; Drug 4, 40 min): 13,900 min*μg/mL | AUC ([3]; Drug 4, 90 min): 29,100 min*μg/mL | AUC ([3]; Drug 4, 1200 min): 259,800 min*μg/mL | AUC90 ([3]; Drug 4, after 90 minutes): 29,100 min*μg/mL | C1200 ([3]; Drug 4 concentration at 1200 minutes): 154 µg/mL | Cmax,90 ([3]; maximum concentration of Drug 4 during the first 90 minutes): 382000 ng/mL

CS(=O)(=O)O.O=C1Cc2cc(CCN3CCN(c4nsc5ccccc45)CC3)c(Cl)cc2N1 [Control C13]
Drug 5 Concentration ([4]; 0 min): 0 µg/mL | Drug 5 Concentration ([4]; 4 min): 16 µg/mL | Drug 5 Concentration ([4]; 10 min): 8 µg/mL | Drug 5 Concentration ([4]; 20 min): 5 µg/mL | Drug 5 Concentration ([4]; 40 min): 4 µg/mL | Drug 5 Concentration ([4]; 90 min): 4 µg/mL | Drug 5 Concentration ([4]; 1200 min): 4 µg/mL | AUC ([4]; Drug 5, 0 min): 0 µg·min/mL | AUC ([4]; Drug 5, 4 min): 0 µg·min/mL | AUC ([4]; Drug 5, 10 min): 100 µg·min/mL | AUC ([4]; Drug 5, 20 min): 200 µg·min/mL | AUC ([4]; Drug 5, 40 min): 300 µg·min/mL | AUC ([4]; Drug 5, 90 min): 500 µg·min/mL | AUC ([4]; Drug 5, 1200 min): 4,900 min*μg/mL | AUC90 ([4]; Drug 5, after 90 minutes): 500 µg·min/mL | C1200 ([4]; Drug 5 concentration at 1200 minutes): 4 µg/mL | Cmax,90 ([4]; maximum concentration of Drug 5 during the first 90 minutes): 16000 ng/mL
